Laboratory results from BigSolDB 2.1.

O=C1c2ccccc2C(=O)N1O
solubility (mole fraction)
Conditions | 278.15 K | 283.15 K | 288.15 K | 293.15 K | 298.15 K | 303.15 K | 308.15 K | 313.15 K | 318.15 K | 323.15 K
in 1,4-dioxane | – | – | 0.0181 | 0.0204 | 0.0231 | 0.0255 | 0.0286 | 0.0319 | 0.0354 | 0.0393
in 2-ethoxyethanol | 0.016 | 0.0182 | 0.0207 | 0.0233 | 0.026 | 0.0294 | 0.0327 | 0.0364 | 0.0404 | 0.0447
in 2-methoxyethanol | 0.0254 | 0.028 | 0.0311 | 0.0346 | 0.0381 | 0.0421 | 0.0466 | 0.051 | 0.056 | 0.062
in acetone | 0.00744 | 0.00861 | 0.00981 | 0.0111 | 0.0126 | 0.0144 | 0.0161 | 0.0186 | 0.0202 | 0.0222
in acetonitrile | 0.00232 | 0.00268 | 0.00312 | 0.0036 | 0.00414 | 0.00476 | 0.00543 | 0.00618 | 0.00701 | 0.0079
in ethanol | 0.00307 | 0.00366 | 0.00442 | 0.00526 | 0.00614 | 0.00729 | 0.00855 | 0.01 | 0.0117 | 0.0138
in ethyl acetate | 0.00214 | 0.00252 | 0.00301 | 0.00353 | 0.00399 | 0.00465 | 0.00541 | 0.0062 | 0.00705 | 0.00807
in methanol | 0.00354 | 0.00412 | 0.00484 | 0.00566 | 0.00657 | 0.0078 | 0.00903 | 0.0105 | 0.0123 | 0.0143
in methyl acetate | 0.00303 | 0.00342 | 0.00394 | 0.00462 | 0.00528 | 0.00618 | 0.00696 | 0.00794 | 0.00908 | 0.0104
in n-propanol | 0.00214 | 0.00259 | 0.00321 | 0.00388 | 0.00467 | 0.00568 | 0.00688 | 0.00834 | 0.00992 | 0.0119
in n-propyl acetate | 0.0017 | 0.00202 | 0.00235 | 0.00281 | 0.00329 | 0.00381 | 0.00442 | 0.00512 | 0.00594 | 0.00679
